Results reported in patent publication US4513003A, “Process for protecting wood using N-(dichlorofluoromethylthio)-3,6-endomethylene-Δ^4 -tetrahydrophthalimide” (Bayer Aktiengesellschaft, priority 1981, dated 1985).
Converted amounts (≈) assume the structure as drawn. Where two headings read alike, the source gives them in different places.

Columns and labels:
Cladosporium herbarum = assay: minimum inhibitory concentration against fungi (agar); format: cell-based; conditions: 336 h
Protocol: (§1) An agar prepared from beer wort and peptone is mixed with the substance according to the invention at concentrations from 0.5 mg/l to 5,000 mg/l.
(§2) After storage for 2 weeks at 28° C. and 60 to 70% relative atmospheric humidity, the MIC is determined. The MIC is the lowest concentration of active agent with which no growth by the type of microbe used ensues; it is given in the table below.

Stachybotris atra C. = assay: as above; format: cell-based; conditions: 336 h
Protocol: as §1, §2

Coniophora cerebella = assay: as above; format: cell-based; conditions: 336 h
Protocol: as §1, §2

Penicillium glaucum = assay: as above; format: cell-based; conditions: 336 h
Protocol: as §1, §2

Alternaria tenuis = assay: as above; format: cell-based; conditions: Alternaria alternata, 336 h
Protocol: as §1, §2

Penicillium citrinum = assay: as above; format: cell-based; conditions: 336 h
Protocol: as §1, §2

Paecilomyces varioti = assay: as above; format: cell-based; conditions: 336 h
Protocol: as §1, §2

Pullularia pullulans = assay: as above; format: cell-based; conditions: 336 h
Protocol: as §1, §2

Trichoderma viride = assay: as above; format: cell-based; conditions: 336 h
Protocol: as §1, §2

Aspergillus niger = assay: as above; format: cell-based; conditions: 336 h
Protocol: as §1, §2

Escherichia coli = assay: action against bacteria, MIC (bouillon agar); format: cell-based; conditions: 336 h
Protocol: An agar, containing bouillon as a nutrient medium, is treated with the active agents A and B (Example 2) given in Table II at concentrations from 1 to 5,000 ppm. The nutrient medium is then inoculated with either Escherichia coli or Staphylococcus aureus and the inoculated medium is maintained for 2 weeks at 28° C. and 60 to 70% relative atmospheric humidity. The MIC is the lowest concentration of active agent with which no growth by the type of microbe used ensues.

[1] = solubility of substance A compared to substance B; format: physicochemical
Protocol: Solubility of substance A compared to substance B (g/l at 20° C.): […]

[2] = beer wort/peptone agar, 2 weeks at 28° C., 60 to 70% relative humidity, read-out: MIC

O=C1C2C3C=CC(C3)C2C(=O)N1SC(F)(Cl)Cl (stereo not shown) [A]
MIC (Cladosporium herbarum; [2]): 7 µg/mL (≈ 0.0236 mM) | MIC (Stachybotris atra C.; Stachybotris atra C., beer wort/peptone agar, 2 weeks at 28° C., 60 to 70% relative humidity, read-out: MIC): 15 µg/mL (≈ 0.0507 mM) | MIC (Coniophora cerebella; [2]): < 1 µg/mL | MIC (Penicillium glaucum; Penicillium glaucum, beer wort/peptone agar, 2 weeks at 28° C., 60 to 70% relative humidity, read-out: MIC): 10 µg/mL (≈ 0.0338 mM) | MIC (Alternaria tenuis; Alternaria tenuis, beer wort/peptone agar, 2 weeks at 28° C., 60 to 70% relative humidity, read-out: MIC): 10 µg/mL (≈ 0.0338 mM) | MIC (Penicillium citrinum; [2]): 7 µg/mL (≈ 0.0236 mM) | MIC (Paecilomyces varioti; Paecilomyces varioti, beer wort/peptone agar, 2 weeks at 28° C., 60 to 70% relative humidity, read-out: MIC): 10 µg/mL (≈ 0.0338 mM) | MIC (Pullularia pullulans; Pullularia pullulans, beer wort/peptone agar, 2 weeks at 28° C., 60 to 70% relative humidity, read-out: MIC): 5 µg/mL (≈ 0.0169 mM) | MIC (Trichoderma viride; [2]): 200 µg/mL (≈ 0.675 mM) | MIC (Aspergillus niger; [2]): 200 µg/mL (≈ 0.675 mM) | MIC (Escherichia coli; bouillon agar, 2 weeks at 28° C., 60 to 70% relative humidity, read-out: MIC): 200 µg/mL (≈ 0.675 mM) | Solubility ([1]; Ethyl acetate, 20° C.): 330 mg/mL (≈ 1110 mM) | Solubility ([1]; Shellsol AB, 20° C.): 140 mg/mL (≈ 473 mM) | Solubility ([1]; Solvesso 100, 20° C.): 200 mg/mL (≈ 675 mM) | Solubility ([1]; Xylene, 20° C.): 250 mg/mL (≈ 844 mM) | solubility properties (in words) ([1]; particularly when compared to substance B): very good solubility properties

CN(C)S(=O)(=O)N(SC(F)(Cl)Cl)c1ccccc1 [B]
MIC (Cladosporium herbarum): 35 µg/mL (≈ 0.105 mM) | MIC (Stachybotris atra C.): 50 µg/mL (≈ 0.15 mM) | MIC (Coniophora cerebella): 10 µg/mL (≈ 0.03 mM) | MIC (Penicillium glaucum; Penicillium): 35 µg/mL (≈ 0.105 mM) | MIC (Alternaria tenuis): 20 µg/mL (≈ 0.06 mM) | MIC (Penicillium citrinum): 150 µg/mL (≈ 0.45 mM) | MIC (Paecilomyces varioti; Paecilomyces): 20 µg/mL (≈ 0.06 mM) | MIC (Pullularia pullulans): 20 µg/mL (≈ 0.06 mM) | MIC (Trichoderma viride): 5000 µg/mL (≈ 15 mM) | MIC (Aspergillus niger): 50 µg/mL (≈ 0.15 mM) | MIC (Escherichia coli): 500 µg/mL (≈ 1.5 mM) | Solubility ([1]; Ethyl acetate, 20° C.): 117 mg/mL (≈ 351 mM) | Solubility ([1]; Shellsol AB, 20° C.): 60 mg/mL (≈ 180 mM) | Solubility ([1]; Solvesso 100, 20° C.): 75 mg/mL (≈ 225 mM) | Solubility ([1]; Xylene, 20° C.): 65 mg/mL (≈ 195 mM)
